Test results reported in paper PMC8386128, “Evaluation of Short-Chain Antimicrobial Peptides With Combined Antimicrobial and Anti-inflammatory Bioactivities for the Treatment of Zoonotic Skin Pathogens From Canines” (Frontiers in Microbiology, 2021).
Counter-ions that a name gives are not always drawn. Like-named read-outs stand apart in the source and are kept apart here. No end group written: not given here.

Columns and labels:
[1] = system: Proteus mirabilis MW767054; details: MW767054, 24 h
[2] = system: Microsporum gypseum MW766983; details: 24 h
[3] = system: S. cohnii MW767053 biofilm; details: for MBIC: 24 h; for MBEC: 48 h
[4] = system: Staphylococcus sciuri MW767055
[5] = system: M. canis MW768151 biofilm; details: for MBIC: 24 h; for MBEC: 48 h
[6] = system: S. pseudintermedius MW767056 biofilm; details: for MBIC: 24 h; for MBEC: 48 h
[7] = system: Staphylococcus cohnii MW767053
[8] = system: Trichophyton mentagrophytes MW766984; details: 24 h
[9] = system: Staphylococcus haemolyticus MW767051
[10] = system: Staphylococcus simulans MW767052
[11] = system: Staphylococcus pseudintermedius clinical isolates; details: triplicate; for MBC/MFC: 10 μl plated on MH plate, no colonies; for MIC: broth microdilution, MHB, 1 × 10^5 CFU/ml, 24 h, 37°C
[12] = system: Staphylococcus cohnii MW767053; details: peptide constant at 1/4 × MIC, 1 × 10^5 CFU/ml, triplicate
[13] = system: Staphylococcus pseudintermedius MW767056; details: peptide constant at 1/4 × MIC, 1 × 10^5 CFU/ml, triplicate
[14] = system: sheep and mouse erythrocytes; assay: Hemolysis assay; details: 4% erythrocyte suspension, 2 h, 37°C, absorption at 550 nm, triplicate
Procedure: The hemolysis assay was carried out by inoculating mammalian erythrocytes obtained from fresh defibrinated sheep and mouse blood (Thermo Fisher Scientific, Waltham, MA, United States) with the peptides. Briefly, peptides were incubated at 37°C with a 4% erythrocyte suspension with a twofold serial dilution series of peptides ranging from 512 to 1 μg/ml for 2 h. PBS and 1% nonionic detergent Triton X-100^TM (Sigma-Aldrich, St. Louis, MO, United States) diluted in PBS served as negative and positive controls, respectively. Cytolysis was evaluated by the measurement of absorption using a microplate reader at 550 nm. Experiments were done in triplicate. The hemolysis is derived from the following calculation:
Haemolysis%=A-APBS/ATriton-APBS×100%.
A represents the absorbance of samples treated with peptide, while APBS and ATriton indicate the absorbance of the negative and positive controls, respectively.

S. cohnii MW767053 = details: peptide incubated in 25% FBS in RPMI-1640, 37°C, 4 h, then MIC at 1 × 10^5 CFU/ml; three replicates, two independent experiments
[15] = system: S. pseudintermedius MW767056; details: three replicates, two independent experiments
[16] = system: S. pseudintermedius MW767056; assay: Calcein leakage analysis (membrane permeabilization); assay type: cell-based, Staphylococcus pseudintermedius; details: 10× MIC, up to 1 h, triplicate, two independent experiments
[17] = system: S. pseudintermedius MW767056; assay: Bacteriolysis analysis (culture turbidity at 600 nm); assay type: cell-based, Staphylococcus pseudintermedius; details: 4× MIC
[18] = system: Microsporum canis MW768151; details: peptide constant at 1/4 × MIC, 1 × 10^5 CFU/ml, triplicate
TNF-α = assay: Western blotting of TNF-α in infected mouse skin; assay type: in vivo, BALB/c mice; details: day 1, vs saline-treated group, normalized to β-actin, n = 3
Procedure: To examine the expression of IL-6 and TNF-α at the protein level, immunoblotting was performed as reported previously ([Tang et al., 2017]). Proteins from dorsal skin tissues were extracted for Western blotting assays. Primary antibodies included anti-IL-6 (1:1,000, Abcam, Waltham, MA, United States) and anti-TNF-α (1:1,000, Abcam, United States). To verify equal sample loading, the membrane was incubated with rabbit polyclonal anti-β-actin antibody (1:1,000, Abcam, United States) as an internal control. Horseradish peroxidase-conjugated goat anti-rabbit IgG (1:5000, Abcam, United States) was used as the secondary antibody. The membranes were exposed under a chemiluminescent imaging analysis system (GE Healthcare Life Science, Danderyd, Sweden). Samples not treated with primary antibodies were considered negative controls. Relative levels of each protein were normalized to those of β-actin in each sample.

[19] = system: S. pseudintermedius MW767056 skin infection; assay: Mouse skin infection (abrasion) model; details: topical 50 μl at 6× MIC daily, n = 5; for bacterial counts of infected skin tissue: inoculum 5 × 10^6 CFU, mean
[20] = in combination with Allomyrinasin

GLLSGILGAGKKIVF [Nigrocin-HLM]
MBC/MFC [1]: 64 µg/mL | MBC/MFC [2]: 1 µg/mL

VAEARQGSFSY [Pinipesin]
MBC/MFC [1]: >256 µg/mL | MIC [1]: >256 µg/mL | MBIC [3]: >256 µg/mL | MBEC [3]: >256 µg/mL | MBC/MFC ([4]; 24 h): >256 µg/mL | MIC ([4]; 24 h): >256 µg/mL | MBIC [5]: 4 µg/mL | MBEC [5]: 16 µg/mL | MBIC [6]: >256 µg/mL | MBEC [6]: >256 µg/mL | MBC/MFC ([7]; 24 h): >256 µg/mL | MIC ([7]; 24 h): >256 µg/mL | MBC/MFC [8]: 0.5 µg/mL | MIC [8]: 0.5 µg/mL | MBC/MFC [2]: 2 µg/mL | MIC [2]: 2 µg/mL | MBC/MFC ([9]; 24 h): >256 µg/mL | MIC ([9]; 24 h): >256 µg/mL | MBC/MFC ([10]; 24 h): 128 µg/mL | MIC ([10]; 24 h): 128 µg/mL

GLTRLFSVIK [Andricin B]
MBC/MFC [1]: >256 µg/mL | MIC [1]: >256 µg/mL | MBC/MFC ([11]; strain MW767046): 32 µg/mL | MIC ([11]; strain MW767046): 32 µg/mL | MBC/MFC ([11]; strain MW767056): 32 µg/mL | MIC ([11]; strain MW767056): 32 µg/mL | MBC/MFC ([11]; strain MW793383): 32 µg/mL | MIC ([11]; strain MW793383): 32 µg/mL | MBC/MFC ([11]; strain MW793384): 128 µg/mL | MIC ([11]; strain MW793384): 128 µg/mL | MBC/MFC ([11]; strain MW793385): 64 µg/mL | MIC ([11]; strain MW793385): 64 µg/mL | MBC/MFC ([11]; strain MW793386): 64 µg/mL | MIC ([11]; strain MW793386): 64 µg/mL | MBC/MFC ([11]; strain MW793387): 128 µg/mL | MIC ([11]; strain MW793387): 128 µg/mL | MBC/MFC ([11]; strain MW793388): 64 µg/mL | MIC ([11]; strain MW793388): 64 µg/mL | MBC/MFC ([11]; strain MW793389): 128 µg/mL | MIC ([11]; strain MW793389): 128 µg/mL | MBC/MFC ([11]; strain MW793390): 128 µg/mL | MIC ([11]; strain MW793390): 128 µg/mL | MBC/MFC ([11]; strain MW793391): 32 µg/mL | MIC ([11]; strain MW793391): 32 µg/mL | MBC/MFC ([11]; strain MW793392): 64 µg/mL | MIC ([11]; strain MW793392): 64 µg/mL | MBIC [3]: 256 µg/mL | MBEC [3]: >256 µg/mL | MBC/MFC ([4]; strain MW767055, MBC, 10 μl plated on MH plate, no colonies, triplicate): >256 µg/mL | MIC ([4]; strain MW767055, broth microdilution, MHB, 1 × 10^5 CFU/ml, 24 h, 37°C, triplicate): >256 µg/mL | MBIC [5]: 4 µg/mL | MBEC [5]: 16 µg/mL | MBIC [6]: 128 µg/mL | MBEC [6]: 256 µg/mL | MBC/MFC ([7]; strain MW767053, MBC, 10 μl plated on MH plate, no colonies, triplicate): 64 µg/mL | FIC index [12, 20]: 0.50 | MBC/MFC [8]: 1 µg/mL | MIC [8]: 1 µg/mL | FIC index [13, 20]: 0.3125 | MBC/MFC [2]: 2 µg/mL | MIC [2]: 2 µg/mL | hemolytic activity at lower concentrations ([14]; 1 to 64 μg/ml): little or no obvious hemolytic activity | hemolytic activity at high concentrations ([14]; >64 μg/ml): slight hemolytic activity | MBC/MFC ([9]; strain MW767051, MBC, 10 μl plated on MH plate, no colonies, triplicate): >256 µg/mL | MIC ([9]; strain MW767051, broth microdilution, MHB, 1 × 10^5 CFU/ml, 24 h, 37°C, triplicate): >256 µg/mL | MIC after serum treatment (S. cohnii MW767053): 256 µg/mL | MIC without serum treatment ([15]; 1 × 10^5 CFU/ml): 32 µg/mL | MIC after serum treatment ([15]; peptide incubated in 25% FBS in RPMI-1640, 37°C, 4 h, then MIC at 1 × 10^5 CFU/ml): 64 µg/mL | MBC/MFC ([10]; strain MW767052, MBC, 10 μl plated on MH plate, no colonies, triplicate): 256 µg/mL | MIC ([10]; strain MW767052, broth microdilution, MHB, 1 × 10^5 CFU/ml, 24 h, 37°C, triplicate): 256 µg/mL

KWAVRIIRKFIKGFIS [Hs02]
MBC/MFC [1]: 128 µg/mL | MIC [1]: 128 µg/mL | MBC/MFC ([4]; 24 h): >256 µg/mL | MIC ([4]; 24 h): >256 µg/mL | MBC/MFC ([7]; 24 h): 32 µg/mL | MIC ([7]; 24 h): 32 µg/mL | MBC/MFC [8]: 1 µg/mL | MIC [8]: 1 µg/mL | MBC/MFC [2]: 0.5 µg/mL | MIC [2]: 0.5 µg/mL | MBC/MFC ([9]; 24 h): 128 µg/mL | MIC ([9]; 24 h): 128 µg/mL | MBC/MFC ([10]; 24 h): 64 µg/mL | MIC ([10]; 24 h): 64 µg/mL

ITSISLCTPGCKTGALMGCNMKTATCHCSIHVSK [Nisin, well-known membrane-perturbing peptide, positive control]
calcein leakage (decrease in fluorescence intensity) [16]: at least 95% | decrease in absorbance (turbidity, OD600) ([17]; after 2.5 h, MHB, triplicate): > 60%

CN(C/C=C/C#CC(C)(C)C)Cc1cccc2ccccc12 [Terbinafine, terbinafine hydrochloride]
FIC index [18, 20]: 0.375 | FIC index ([18]; in combination with Andricin B): 0.50

CC1(C)S[C@@H]2[C@H](NC(=O)[C@H](N)c3ccc(O)cc3)C(=O)N2[C@H]1C(=O)O [Amoxicillin, amoxicillin]
calcein leakage (decrease in fluorescence intensity) [16]: no obvious disruptive reaction | FIC index [12, 20]: 0.3125 | FIC index ([12]; in combination with Andricin B): 0.50 | FIC index [13, 20]: 0.281 | FIC index ([13]; in combination with Andricin B): indifferent interaction | expression level of TNF-α protein in infected skin (TNF-α): decreased | variation in culture turbidity (OD600) over 10 h ([17]; result in words): not recorded | bacterial counts of infected skin tissue ([19]; day 1): 5.94 log10 CFU/g | bacterial load in the liver ([19]; day 1): No bacterial load was detected | bacterial counts of infected skin tissue ([19]; day 3): 3.58 log10 CFU/g | S. pseudintermedius infection in the liver ([19]; day 3): completely prevented

AAVTRRILCWFA-NH2 [Allomyrinasin]
MBC/MFC [1]: >256 µg/mL | MIC [1]: >256 µg/mL | MBIC [3]: 128 µg/mL | MBEC [3]: 256 µg/mL | MBC/MFC ([4]; 24 h): >256 µg/mL | MIC ([4]; 24 h): >256 µg/mL | MBIC [5]: 2 µg/mL | MBEC [5]: 8 µg/mL | MBIC [6]: 32 µg/mL | MBEC [6]: 128 µg/mL | MBC/MFC ([7]; 24 h): 32 µg/mL | MIC ([7]; 24 h): 32 µg/mL | MBC/MFC [8]: 2 µg/mL | MIC [8]: 2 µg/mL | MBC/MFC [2]: 0.5 µg/mL | MIC [2]: 0.5 µg/mL | MBC/MFC ([9]; 24 h): >256 µg/mL | MIC ([9]; 24 h): >256 µg/mL | MBC/MFC ([10]; 24 h): 128 µg/mL | MIC ([10]; 24 h): 128 µg/mL
